# Measured values from patent US20150273027A1, “LIQUID PHARMACEUTICAL COMPOSITION OF FACTOR VII POLYPEPTIDE” (Novo Nordisk Healthcare AG, priority 2012, published 2015).
# Numbering of substitutions follows the chain as printed. pKd: −log10 of the molar value.
# How the values were obtained:
# SF-rFVIIa = molecular target: T1, SF-rFVIIa (Homo sapiens, UniProt P08709); test: Isothermal titration calorimetry (iTC200) binding to SF-rFVIIa; details: for pKd: SF-rFVIIa
# T1 construct: made in house
# T1 sequence (P08709 213-466 limits assumed): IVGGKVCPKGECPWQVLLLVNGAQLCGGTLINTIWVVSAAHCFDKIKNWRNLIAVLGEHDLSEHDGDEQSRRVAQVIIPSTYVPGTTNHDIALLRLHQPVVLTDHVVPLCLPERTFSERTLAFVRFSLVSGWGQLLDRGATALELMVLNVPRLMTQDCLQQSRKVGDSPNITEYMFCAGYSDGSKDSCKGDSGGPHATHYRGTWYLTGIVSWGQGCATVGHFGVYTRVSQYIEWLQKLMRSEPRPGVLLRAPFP
# T1 sequence (P08709 61-212 limits assumed): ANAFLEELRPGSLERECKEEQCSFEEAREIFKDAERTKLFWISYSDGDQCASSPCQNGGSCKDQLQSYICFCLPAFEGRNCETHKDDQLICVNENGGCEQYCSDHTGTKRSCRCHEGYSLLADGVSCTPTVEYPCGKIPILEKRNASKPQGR
# Description: (§1) All proteases were dialyzed extensively in binding buffer: 10 mM HEPES pH 7.4, 150 mM NaCl, 0.005% v/v Surfactant P20, 5 mM CaCl2. All binding experiments were carried out in binding buffer unless otherwise indicated. The active site stabilizing agent set forth Formula I was dissolved in 50 mM Tris pH 8.0 to a final concentration of 9 mM giving a yellow colour. Isothermal titration calorimetry (iTC200, from GE healthcare) was chosen as the method of choice for determining binding parameters. Each iTC200 run involved filling the cell with the protease (approximately 200 μL) and the syringe with the active site stabilizing agent (approximately 40 μL). Temperature was set as required and the protease was allowed to equilibrate under given experimental conditions (approximately 10 minutes). Typically 17-20 injections (of 2-2.5 μL) of active site stabilizing agent into the cell, containing protease, were performed. The first injection was always of 0.2 μL and was discarded from the final data analysis. Stirring speed was set between 700-1000 rpm. Filter period for data collection was 5 sec with a high feedback mode setting. Each titration was spaced by 120 sec. Raw data was processed to set the baseline, integrate each peak to get a final isotherm. This isotherm was fit to a single-site model to yield Kd, stoichiometry (n), ΔH, and ΔS values to complete characterization of binding of active site stabilizing agents to a protease. Each binding experiment was repeated at least twice. Tables 14, 15 and 16 summarizes binding of active site binding agents to SF-FVIIa and Vatreptacog alfa under varying solution conditions as described below.
# rFVIIa = molecular target: T2, rFVIIa (Homo sapiens, UniProt P08709); test: Isothermal titration calorimetry (iTC200) binding to rFVIIa; details: for pKd: binding buffer
# T2 construct: made in house
# T2 sequence (P08709 213-466 limits assumed): T1 sequence (P08709 213-466 limits assumed)
# T2 sequence (P08709 61-212 limits assumed): T1 sequence (P08709 61-212 limits assumed)
# Description: as §1
# V158D/E296V/M298Q-FVIIa = molecular target: T3, V158D/E296V/M298Q-FVIIa (Homo sapiens, UniProt P08709, E356V/M358Q/V218D); test: Isothermal titration calorimetry (iTC200) binding to V158D/E296V/M298Q-FVIIa
# T3 construct: made in house
# T3 sequence (P08709 213-466 V218D/E356V/M358Q limits assumed): T1 sequence (P08709 213-466 limits assumed) with V6D, E144V, M146Q
# T3 sequence (P08709 61-212 limits assumed): T1 sequence (P08709 61-212 limits assumed)
# Description: as §1
# [1] = tested on: tail bleeding in F8-KO mice; test: Tail bleeding in FVIII knock out (F8-KO) mice; type: in vivo; details: dose 3 mg/kg i.v.
# Description: The biological in vivo efficacy and potency of recombinant factor VIIa (rFVIIa) co-formulated with the active site stabilizing agent with Formula I in the molar ratio 1:[…]; 2.5; 5; […] in FVIII knock out (F8-KO) mice (Bi L, Sarkar R, Naas T, Lawler A M, Pain J, Shumaker S L et al. Further characterization of factor VIII-deficient mice created by gene targeting: RNA and protein studies. Blood 1996; 88:3446-).
# Tail bleeding was initiated in Isofluran anesthetized F8-KO mice by transection of 4 mm of the tip of the tail 5 min after dosing rFVIIa, rFVIIa:active site stabilizing agent (1:1.75) or vehicle iv in a tail vein in the mice. Bleeding time and blood loss was measured for a 30 minutes period in 37° C. saline as described elsewhere (Elm T; Karpf D M; Øvlisen K; Pelzer H; Ezban M; Kjalke M; Tranholm M. Pharmacokinetics and pharmacodynamics of a new recombinant FVIII (N8) in haemophilia A mice. Haemophilia, 2012; 18 (1), 139-145). […] The bleeding time vs dose of rFVIIa and rFVIIa:active site stabilizing agent (1:1.75) show very similar dose response curves.
# The in vivo effect of serum free recombinant FVIIa (SF-rFVIIa) and SF-rFVIIa co-formulated with the active site stabilizing agent set forth in Formula I in the molar ratio 1:2.5 was studied with the same design in the tail bleeding model in F8-KO mice at the concentration 1; 2.5; 5; 10 and 15 mg/kg. […]
# [2] = iTC200, binding buffer pH 7.4, 20° C.
compound,measurement,setting,value
"COc1cccc([C@H](C)NC(=O)CNC(=O)Nc2ccc(C(=N)N)cc2)c1 [Formula A, S-2-[3-(4-Carbamimidoylphenyl)ureido]-N-[1-(3-methoxyphenyl)-ethyl]-acetamide, reference compound]",pKd,SF-rFVIIa; [2],5.75
"N=C(N)c1ccc2[nH]c(-c3cc(CC(=O)N[C@@H](CC(=O)O)C(=O)O)cc(-c4cc(S(N)(=O)=O)ccc4O)c3O)nc2c1 [Formula I, (S)-2-{2-[5-(5-carbamimidoyl-1H-benzoimidazol-2-yl)-6,2′-dihydroxy-5′-sulfamoyl-biphenyl-3-yl]acetylamino}-succinic acid]",fold difference in binding at 20° C. and 37° C.,SF-rFVIIa; SF-FVIIa,17 fold
same,pKd,"SF-rFVIIa; binding buffer, 37° C.",6.48
same,pKd,SF-rFVIIa; [2],7.70
same,pKd,"SF-rFVIIa; pH 5.5, 20° C.",5.81
same,pKd,"SF-rFVIIa; pH 6.5, 20° C.",7.37
same,pKd,"SF-rFVIIa; pH 8.5, 20° C.",6.89
same,fold difference in binding at 20° C. and 37° C.,rFVIIa,23 fold
same,pKd,rFVIIa; 20° C.,7.89
same,pKd,rFVIIa; 37° C.,6.53
same,fold difference in binding at 20° C. and 37° C.,V158D/E296V/M298Q-FVIIa,21 fold
same,pKd,"V158D/E296V/M298Q-FVIIa; binding buffer pH 7.4, 20° C.",8.66
same,pKd,"V158D/E296V/M298Q-FVIIa; binding buffer, 37° C.",7.34
same,pKd,"V158D/E296V/M298Q-FVIIa; pH 5.5, 20° C.",7.11
same,pKd,"V158D/E296V/M298Q-FVIIa; pH 6.5, 20° C.",8.05
same,pKd,"V158D/E296V/M298Q-FVIIa; pH 8.5, 20° C.",8.22
"N=C(N)c1ccc2[nH]c(-c3cc(CC(=O)N[C@H](CC(=O)O)C(=O)O)cc(-c4cc(S(N)(=O)=O)ccc4O)c3O)nc2c1 [Formula II, (R)-2-{2-[5-(5-carbamimidoyl-1H-benzoimidazol-2-yl)-6,2′-dihydroxy-5′-sulfamoyl-biphenyl-3-yl]acetylamino}-succinic acid]",pKd,SF-rFVIIa; [2],7.92
"Vatreptacog Alfa: FVIIa sequence variant, V158D/E296V/M298Q-FVII, three amino acids of the wild-type human sequence replaced","In vivo tail bleeding as blood loss, mean",[1],1207 nmol haemoglobin
